Key:
[1] = cited from earlier work
[2] = binding energy with the cyclodextrin host; conditions: such as (2-Hydroxypropyl)-β-cyclodextrin
Text: The flavor components should be added last; this is due to the generally higher binding energy (vs. nicotine) with the cyclodextrin host. […] For menthol example, the approximate binding energies are −4.13 Kcal·mol^−1 (nicotine) and −5.06 Kcal·mol^−1 (menthol). […] Microfiltration may then be performed, in this case, to remove any excess menthol which has not formed a complex with cyclodextrin.

Compound	solubility in water compared to base cyclodextrins such as β-cyclodextrin [1]	approximate binding energy with the cyclodextrin host [2]
2-hydroxy-propyl-β-cyclodextrin [2-hydroxy-propyl-O-cyclodextrin]	increased solubility in water	
CN1CCC[C@H]1c1cccnc1 (stereo in doubt) [Nicotine, 3-(1-methylpyrrolidin-2-yl) pyridine]		~-4.13 kcal/mol
CC1CCC(C(C)C)C(O)C1 (stereo not drawn) [menthol]		~-5.06 kcal/mol

Source: patent US12114689B2 (NICOVENTURES TRADING LIMITED, priority 2018, dated 2024)
